Measured values published in paper PMC3393770 (Chembiochem, 2012).
Where two headings read alike, the source gives them in different places.

Molecular target: T1, Saccharomyces cerevisiae 20S proteasome, β5 subunit (chymotrypsin-like activity) (Saccharomyces cerevisiae, UniProt P23724+P30656)
T1 sequence (P30656 76-287): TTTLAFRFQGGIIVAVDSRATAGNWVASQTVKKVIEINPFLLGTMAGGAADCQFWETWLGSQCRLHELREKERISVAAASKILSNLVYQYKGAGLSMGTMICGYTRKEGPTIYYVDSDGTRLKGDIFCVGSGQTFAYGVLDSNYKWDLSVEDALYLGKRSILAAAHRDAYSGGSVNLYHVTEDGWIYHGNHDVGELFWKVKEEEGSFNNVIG
T1 sequence (P23724 20-241): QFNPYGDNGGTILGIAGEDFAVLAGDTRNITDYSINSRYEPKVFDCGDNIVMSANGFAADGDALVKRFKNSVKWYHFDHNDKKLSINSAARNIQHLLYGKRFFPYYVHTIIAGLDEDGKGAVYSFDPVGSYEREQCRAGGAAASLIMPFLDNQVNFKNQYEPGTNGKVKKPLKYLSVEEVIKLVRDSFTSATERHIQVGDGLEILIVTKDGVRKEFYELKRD
Assay: […] proteasome β[…]
Assay type: biochemical

[1] = read-out: Proteasome Inhibition(IC50), chymotrypsin-like site, 0.5 μg/mL proteasome, covalent (α,β-epoxyketone, Thr1)

IC50 [1]	SMILES	IC50
2.5 ± 0.3 nM	CCCCCC(=O)N[C@H](C(=O)N[C@@H](CC[S+](C)[O-])C(=O)N[C@@H](CC(C)C)C(=O)[C@@]1(C)CO1)C(C)C (mixture of isomers) [compound 1, carmaphycin A]	–
2.6 ± 0.9 nM	CCCCCC(=O)N[C@H](C(=O)N[C@@H](CCS(C)(=O)=O)C(=O)N[C@@H](CC(C)C)C(=O)[C@@]1(C)CO1)C(C)C [compound 2, carmaphycin B]	–
–	C[C@@]12OC(=O)[C@]1([C@@H](O)[C@@H]1C=CCCC1)NC(=O)[C@@H]2CCCl [compound 11, salinosporamide A]	1.4 ± 0.2 nM
